pIC50: −log10 of the molar value.
How the values were obtained:
Assay type in all cases: biochemical
human TOR = biological target: T1, human TOR (Homo sapiens, UniProt P42345); test: mTOR enzyme assay (DELFIA, His6-S6K substrate); conditions: read-out: mTOR Kinase Avg. IC50
T1 construct: FLAG

PI3K-alpha = PI3K-alpha (Homo sapiens, UniProt P42336); test: PI3K-alpha fluorescence polarization assay; conditions: read-out: PI3Kα Avg. IC50
PI3K-gamma = PI3K-gamma (Homo sapiens, UniProt P48736); test: PI3K-gamma fluorescence polarization assay; conditions: PI3Kγ Avg. IC50
PI3K-gamma, sequence (P48736 whole entry, species assumed, the tested form may be a part): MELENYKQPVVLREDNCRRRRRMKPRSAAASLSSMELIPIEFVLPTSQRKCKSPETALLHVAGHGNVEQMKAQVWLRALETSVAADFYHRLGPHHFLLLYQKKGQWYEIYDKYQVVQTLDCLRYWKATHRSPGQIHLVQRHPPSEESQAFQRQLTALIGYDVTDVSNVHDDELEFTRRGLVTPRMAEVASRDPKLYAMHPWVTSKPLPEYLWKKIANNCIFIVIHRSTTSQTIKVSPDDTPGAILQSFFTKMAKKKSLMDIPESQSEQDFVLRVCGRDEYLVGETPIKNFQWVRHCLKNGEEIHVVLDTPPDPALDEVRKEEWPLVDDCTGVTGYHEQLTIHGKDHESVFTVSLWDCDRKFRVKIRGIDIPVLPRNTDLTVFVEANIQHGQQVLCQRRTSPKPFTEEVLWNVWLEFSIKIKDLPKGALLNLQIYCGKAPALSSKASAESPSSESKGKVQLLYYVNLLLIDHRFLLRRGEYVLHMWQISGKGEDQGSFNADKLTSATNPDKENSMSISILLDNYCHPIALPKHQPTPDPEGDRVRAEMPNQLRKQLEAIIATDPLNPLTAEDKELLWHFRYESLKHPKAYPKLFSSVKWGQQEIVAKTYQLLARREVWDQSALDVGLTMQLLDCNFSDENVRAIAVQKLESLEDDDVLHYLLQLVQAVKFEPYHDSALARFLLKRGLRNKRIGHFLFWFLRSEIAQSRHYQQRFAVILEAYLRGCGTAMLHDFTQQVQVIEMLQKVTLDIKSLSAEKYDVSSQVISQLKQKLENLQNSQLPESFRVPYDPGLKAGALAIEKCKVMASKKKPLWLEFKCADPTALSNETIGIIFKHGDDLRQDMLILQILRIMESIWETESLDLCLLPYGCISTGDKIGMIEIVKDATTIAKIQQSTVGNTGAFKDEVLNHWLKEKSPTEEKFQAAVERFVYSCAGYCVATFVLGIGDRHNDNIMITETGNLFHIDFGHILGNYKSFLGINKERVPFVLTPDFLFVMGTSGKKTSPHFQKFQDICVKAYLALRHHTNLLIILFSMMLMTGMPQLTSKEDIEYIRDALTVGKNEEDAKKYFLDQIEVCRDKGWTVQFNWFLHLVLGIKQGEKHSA
Summary of the method: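 FP displacement read-out: 100 nM GST-GRP1 PH domain plus 5 nM BODIPY-TMR-IP4 added after EDTA stop. Preceding kinase step: 5 ng enzyme, diC8-PI(4,5)P2 2.5 μM, ATP 25 μM, MgCl2 2.5 mM, HEPES 5 mM pH 7, one hour, 25° C.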

PI3K-alpha, sequence (P42336 whole entry, species assumed): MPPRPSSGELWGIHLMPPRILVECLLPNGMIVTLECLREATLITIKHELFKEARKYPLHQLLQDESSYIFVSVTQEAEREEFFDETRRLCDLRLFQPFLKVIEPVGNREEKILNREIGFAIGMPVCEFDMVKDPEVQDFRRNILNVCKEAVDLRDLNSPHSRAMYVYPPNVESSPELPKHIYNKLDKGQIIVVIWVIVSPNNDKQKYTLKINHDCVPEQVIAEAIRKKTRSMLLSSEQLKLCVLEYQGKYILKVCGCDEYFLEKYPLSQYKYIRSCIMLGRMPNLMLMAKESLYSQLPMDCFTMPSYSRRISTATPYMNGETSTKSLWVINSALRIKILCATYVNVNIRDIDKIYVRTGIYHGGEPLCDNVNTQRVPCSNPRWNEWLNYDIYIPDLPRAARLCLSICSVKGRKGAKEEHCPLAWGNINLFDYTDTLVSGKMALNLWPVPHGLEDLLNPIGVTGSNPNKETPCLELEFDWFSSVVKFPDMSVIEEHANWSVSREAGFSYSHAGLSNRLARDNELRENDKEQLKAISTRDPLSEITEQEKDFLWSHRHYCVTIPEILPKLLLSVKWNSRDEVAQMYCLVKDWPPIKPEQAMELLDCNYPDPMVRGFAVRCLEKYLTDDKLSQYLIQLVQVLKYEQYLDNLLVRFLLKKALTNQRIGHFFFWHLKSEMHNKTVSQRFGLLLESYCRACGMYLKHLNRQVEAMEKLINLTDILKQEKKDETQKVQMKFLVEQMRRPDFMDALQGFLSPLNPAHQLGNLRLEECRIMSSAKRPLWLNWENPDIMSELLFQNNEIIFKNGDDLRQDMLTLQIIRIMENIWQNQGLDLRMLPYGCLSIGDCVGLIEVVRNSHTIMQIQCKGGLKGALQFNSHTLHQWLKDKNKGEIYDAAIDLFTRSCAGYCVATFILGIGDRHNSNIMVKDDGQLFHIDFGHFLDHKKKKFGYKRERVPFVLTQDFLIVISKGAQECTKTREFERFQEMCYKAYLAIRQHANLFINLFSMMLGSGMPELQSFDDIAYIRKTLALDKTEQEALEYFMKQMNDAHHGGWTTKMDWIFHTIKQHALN
PI3K-alpha, sequence (P27986 whole entry partner, species assumed): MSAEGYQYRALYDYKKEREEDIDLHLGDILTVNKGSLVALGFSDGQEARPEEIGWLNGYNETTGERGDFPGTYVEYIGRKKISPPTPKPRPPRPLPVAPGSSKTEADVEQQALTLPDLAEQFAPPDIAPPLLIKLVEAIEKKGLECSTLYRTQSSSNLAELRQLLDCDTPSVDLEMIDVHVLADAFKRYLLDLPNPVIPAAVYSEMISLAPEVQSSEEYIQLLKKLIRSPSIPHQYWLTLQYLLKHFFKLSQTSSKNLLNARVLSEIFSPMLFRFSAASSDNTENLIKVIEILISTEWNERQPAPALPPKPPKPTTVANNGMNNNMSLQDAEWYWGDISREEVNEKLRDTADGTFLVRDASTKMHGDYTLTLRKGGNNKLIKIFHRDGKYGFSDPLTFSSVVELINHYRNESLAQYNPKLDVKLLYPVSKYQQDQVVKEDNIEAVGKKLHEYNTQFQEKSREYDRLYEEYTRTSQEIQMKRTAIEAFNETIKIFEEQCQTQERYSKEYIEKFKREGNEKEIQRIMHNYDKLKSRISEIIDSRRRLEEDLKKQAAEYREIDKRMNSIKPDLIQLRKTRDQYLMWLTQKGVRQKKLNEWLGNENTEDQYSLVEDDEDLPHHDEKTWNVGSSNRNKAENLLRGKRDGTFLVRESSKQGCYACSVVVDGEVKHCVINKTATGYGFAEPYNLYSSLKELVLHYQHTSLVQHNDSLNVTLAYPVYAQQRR

pIC50 (human TOR) | pIC50 (PI3K-alpha) | pIC50 (PI3K-gamma) | Structure (SMILES)
6.01 | 5.45 | < 5.00 | Cn1cc(C=C2Oc3cc(O)cc(O)c3C2=O)c2cc([N+](=O)[O-])ccc21 [Example 228, 4,6-dihydroxy-2-[(1-methyl-5-nitro-1H-indol-3-yl)methylene]-1-benzofuran-3(2H)-one]
7.74 | 5.55 | 5.12 | CN(C)c1ccc(-c2cccc3c2c(/C=C2\Oc4cc(O)cc(O)c4C2=O)cn3C)cc1 [Example 385, (2Z)-2-({4-[4-(Dimethylamino)phenyl]-1-methyl-1H-indol-3-yl}methylene)-4,6-dihydroxy-1-benzofuran-3(2H)-one]
5.60 | 5.82 | 5.61 | O=C1C(=Cc2c(-c3ccccc3)n(CCN3CCCC3)c3ccccc23)Oc2cc(O)cc(O)c21 [Example 157, 4,6-dihydroxy-2-{[2-phenyl-1-(2-pyrrolidin-1-ylethyl)-1H-indol-3-yl]methylene}-1-benzofuran-3(2H)-one]
8.40 | 9.22 | 7.54 | CNCCNC(=O)c1ccc(NC(=O)Nc2ccc3c(c2)C(=O)/C(=C/c2c(C)n(CCN4CCN(C)CC4)c4ccc(OC)cc24)O3)cc1 [Compound 669, 4-({[(2Z)-2-({5-methoxy-2-methyl-1-[2-(4-methylpiperazin-1-yl)ethyl]-1H-indol-3-yl}methylidene)-3-oxo-2,3-dihydro-1-benzofuran-5-yl]carbamoyl}amino)-N-[2-(methylamino)ethyl]benzamide]
6.98 | 6.36 | 5.71 | Cn1cc(/C=C2\Oc3cc(O)cc(O)c3C2=O)c2c(-c3cccc(F)c3)cccc21 [Example 365, (2Z)-2-{[4-(3-Fluorophenyl)-1-methyl-1H-indol-3-yl]methylene}-4,6-dihydroxy-1-benzofuran-3(2H)-one]
5.70 | 7.29 | 6.01 | COc1ccc2c(c1)c(/C=C1\Oc3cc(O)cc(O)c3C1=O)c(-c1cncnc1)n2CCN1CCN(C)CC1 [Example 463, (2Z)-4,6-Dihydroxy-2-({5-methoxy-1-[2-(4-methylpiperazin-1-yl)ethyl]-2-pyrimidin-5-yl-1H-indol-3-yl}methylene)-1-benzofuran-3(2H)-one]
< 4.70 | 5.98 | < 5.00 | Cn1cc(C=C2Oc3cc(O)cc(O)c3C2=O)c2cc(Br)ccc21 [Example 248, 2-[(5-bromo-1-methyl-1H-indol-3-yl)methylene]-4,6-dihydroxy-1-benzofuran-3(2H)-one]
7.10 | 6.29 | 5.27 | N#CCCCn1c(-c2ccccc2)c(C=C2Oc3cc(O)cc(O)c3C2=O)c2ccccc21 [Example 155, 4-{3-[(4,6-dihydroxy-3-oxo-1-benzofuran-2(3H)-ylidene)methyl]-2-phenyl-1H-indol-1-yl}butanenitrile]
7.94 | 5.73 | 5.01 | CNc1ccc(-c2cccc3c2c(/C=C2\Oc4cc(O)cc(O)c4C2=O)cn3C)cc1 [Example 389, (2Z)-4,6-Dihydroxy-2-({1-methyl-4-[4-(methylamino)phenyl]-1H-indol-3-yl}methylene)-1-benzofuran-3(2H)-one]
< 6.10 | 6.51 | 5.46 | COc1ccc2c(c1)c(/C=C1\Oc3c(ccc(O)c3Cl)C1=O)c(C)n2CCCN(C)C [Example 361, (2Z)-7-Chloro-2-({1-[3-(dimethylamino)propyl]-5-methoxy-2-methyl-1H-indol-3-yl}methylene)-6-hydroxy-1-benzofuran-3(2H)-one]
6.23 | 7.72 | 6.84 | CCn1c(C)c(/C=C2\Oc3ccc(NC(=O)Nc4ccc(S(=O)(=O)N5CCN(C)CC5)cc4)cc3C2=O)c2cc(OC)ccc21 [Compound 677, 1-{(2Z)-2-[(1-ethyl-5-methoxy-2-methyl-1H-indol-3-yl)methylidene]-3-oxo-2,3-dihydro-1-benzofuran-5-yl}-3-{4-[(4-methylpiperazin-1-yl)sulfonyl]phenyl}urea]
7.62 | 5.97 | < 5.00 | Cn1cc(/C=C2\Oc3cc(O)cc(O)c3C2=O)c2c(-c3ccccc3N)cccc21 [Example 419, (2Z)-2-{[4-(2-Aminophenyl)-1-methyl-1H-indol-3-yl]methylene}-4,6-dihydroxy-1-benzofuran-3(2H)-one]
< 4.70 | 6.40 | 5.46 | COc1ccc2[nH]c(C)c(C=C3Oc4c(ccc(O)c4O)C3=O)c2c1 [Example 69, 6,7-dihydroxy-2-[(5-methoxy-2-methyl-1H-indol-3-yl)methylene]-1-benzofuran-3(2H)-one]
6.76 | 9.22 | 8.12 | CCn1cc(/C=C2\Oc3ccc(NC(=O)Nc4ccc(C(=O)N(C)CCN(C)C)cc4)cc3C2=O)c2cc(OC)ccc21 [Compound 655, N-[2-(dimethylamino)ethyl]-4-[({(2Z)-2-[(1-ethyl-5-methoxy-1H-indol-3-yl)methylene]-3-oxo-2,3-dihydro-1-benzofuran-5-yl}carbamoyl)amino]-N-methylbenzamide]
5.54 | 6.29 | 5.92 | COc1ccc2[nH]cc(C=C3Oc4cccc(O)c4C3=O)c2c1 [Example 78, 4-hydroxy-2-[(5-methoxy-1H-indol-3-yl)methylene]-1-benzofuran-3(2H)-one]
< 4.70 | 6.43 | 5.11 | COc1ccc2c(c1)c(/C=C1\Oc3c(ccc(O)c3Cl)C1=O)c(C)n2CCN1CCN(C)CC1 [Example 451, (2Z)-7-Chloro-6-hydroxy-2-({5-methoxy-2-methyl-1-[2-(4-methylpiperazin-1-yl)ethyl]-1H-indol-3-yl}methylene)-1-benzofuran-3(2H)-one]
6.30 | 5.57 | 5.33 | CN(C)CCn1c(-c2ccccc2)c(C=C2Oc3cc(O)cc(O)c3C2=O)c2ccccc21 [Example 148, 2-({1-[2-(dimethylamino)ethyl]-2-phenyl-1H-indol-3-yl}methylene)-4,6-dihydroxy-1-benzofuran-3(2H)-one]
4.77 | 6.12 | < 5.00 | O=C1C(=Cc2c[nH]c3c(Cl)cccc23)Oc2cc(O)cc(O)c21 [Example 173, 2-[(7-chloro-1H-indol-3-yl)methylene]-4,6-dihydroxy-1-benzofuran-3(2H)-one]
6.78 | 7.63 | 6.03 | COc1ccc2c(c1)c(/C=C1\Oc3cc(O)ccc3C1=O)c(-c1c(C)noc1C)n2CCN1CCN(C)CC1 [Example 469, (2Z)-2-({2-(3,5-Dimethylisoxazol-4-yl)-5-methoxy-1-[2-(4-methylpiperazin-1-yl)ethyl]-1H-indol-3-yl}methylene)-6-hydroxy-1-benzofuran-3(2H)-one]
< 4.70 | 6.87 | 5.36 | COc1ccc2c(c1)c(/C=C1\Oc3cc(O)c(C)cc3C1=O)c(C)n2CCN1CCN(C)CC1 [Example 458, (2Z)-6-Hydroxy-2-({5-methoxy-2-methyl-1-[2-(4-methylpiperazin-1-yl)ethyl]-1H-indol-3-yl}methylene)-5-methyl-1-benzofuran-3(2H)-one]
7.05 | 5.95 | 5.69 | Cn1cc(/C=C2\Oc3cc(O)cc(O)c3C2=O)c2c(-c3cccc(O)c3)cccc21 [Example 390, (2Z)-4,6-Dihydroxy-2-{[4-(3-hydroxyphenyl)-1-methyl-1H-indol-3-yl]methylene}-1-benzofuran-3(2H)-one]
6.37 | 7.30 | 5.75 | COc1ccc2c(c1)c(/C=C1\Oc3cc(O)cc(Cl)c3C1=O)c(C)n2CCN1CCN(C)CC1 [Example 467, (2Z)-4-Chloro-6-hydroxy-2-({5-methoxy-2-methyl-1-[2-(4-methylpiperazin-1-yl)ethyl]-1H-indol-3-yl}methylene)-1-benzofuran-3(2H)-one]
6.70 | 8.94 | 6.80 | CNC(=O)Nc1ccc2c(c1)C(=O)/C(=C/c1c(-c3ccc(CN(C)C)cc3)n(CCN3CCN(C)CC3)c3ccc(OC)cc13)O2 [Compound 630, 1-{(2Z)-2-[(2-{4-[(dimethylamino)methyl]phenyl}-5-methoxy-1-[2-(4-methylpiperazin-1-yl)ethyl]-1H-indol-3-yl)methylidene]-3-oxo-2,3-dihydro-1-benzofuran-5-yl}-3-methylurea]
< 4.70 | 6.00 | < 5.00 | O=C1C(=Cc2c[nH]c3c(OCc4ccccc4)cccc23)Oc2cc(O)cc(O)c21 [Example 242, 2-{[7-(benzyloxy)-1H-indol-3-yl]methylene}-4,6-dihydroxy-1-benzofuran-3(2H)-one]
6.66 | 8.40 | 7.60 | CCn1c(C)c(/C=C2\Oc3ccc(NC(=O)Nc4ccc(CCCN(C)C)cc4)cc3C2=O)c2cc(OC)ccc21 [Compound 671, 1-{4-[3-(dimethylamino)propyl]phenyl}-3-{(2Z)-2-[(1-ethyl-5-methoxy-2-methyl-1H-indol-3-yl)methylidene]-3-oxo-2,3-dihydro-1-benzofuran-5-yl}urea]

Structure (SMILES) | pIC50 (human TOR) | pIC50 (PI3K-alpha) | pIC50 (PI3K-gamma)
CCn1c(C)c(/C=C2\Oc3ccc(NC(=O)Nc4ccc(OCCCCN(C)C)cc4)cc3C2=O)c2cc(OC)ccc21 [Compound 668, 1-{4-[4-(dimethylamino)butoxy]phenyl}-3-{(2Z)-2-[(1-ethyl-5-methoxy-2-methyl-1H-indol-3-yl)methylidene]-3-oxo-2,3-dihydro-1-benzofuran-5-yl}urea] | 6.53 | 8.54 | 7.91
